Assays:
[1] = Inhibition of HDAC by fluorescence assay
[2] = system: PC-3; assay: Cytotoxicity against human PC3 cells; type: functional
[3] = system: MDA-MB-231; assay: Cytotoxicity against human MDA-MB-231 cells; type: functional
[4] = system: ACHN; assay: Cytotoxicity against human ACHN cells; type: functional
[5] = system: HCT-15; assay: Cytotoxicity against human HCT15 cells; type: functional
[6] = system: NCI-H23; assay: Cytotoxicity against human NCI-H23 cells; type: functional
[7] = system: LOX IMVI; assay: Cytotoxicity against human LOXIMVI cells; type: functional
[8] = system: NUGC-3; assay: Cytotoxicity against human NUGC3 cells; type: functional
[9] = system: HCT-116; assay: Antitumor activity against human HCT116 cells xenografted in nude mouse assessed as reduction of tumor volume at 30 mg/kg, ip for 20 days (reference value: 369.8 mm'3); type: functional; settings: route intraperitoneal
[10] = target: Histone deacetylase 1 (Homo sapiens, UniProt Q13547); assay: Inhibition of HDAC1 by fluorescence assay
Histone deacetylase 1, sequence (Q13547 whole entry): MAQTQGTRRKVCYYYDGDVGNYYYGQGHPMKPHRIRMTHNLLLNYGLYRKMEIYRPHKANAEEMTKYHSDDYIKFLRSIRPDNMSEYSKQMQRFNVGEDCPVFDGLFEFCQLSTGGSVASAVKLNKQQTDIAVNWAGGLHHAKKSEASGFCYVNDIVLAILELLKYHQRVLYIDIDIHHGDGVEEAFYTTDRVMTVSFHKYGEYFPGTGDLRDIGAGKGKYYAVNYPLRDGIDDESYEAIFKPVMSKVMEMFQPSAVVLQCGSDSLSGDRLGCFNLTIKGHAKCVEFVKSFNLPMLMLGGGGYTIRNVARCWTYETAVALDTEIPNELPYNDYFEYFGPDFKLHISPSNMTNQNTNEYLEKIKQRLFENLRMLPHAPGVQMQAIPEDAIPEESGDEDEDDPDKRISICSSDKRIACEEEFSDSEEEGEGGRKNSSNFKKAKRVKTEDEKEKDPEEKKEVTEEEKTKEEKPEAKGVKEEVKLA

[11] = target: Histone deacetylase 2 (Homo sapiens, UniProt Q92769); assay: Inhibition of HDAC2 by fluorescence assay
Histone deacetylase 2, sequence (Q92769 whole entry): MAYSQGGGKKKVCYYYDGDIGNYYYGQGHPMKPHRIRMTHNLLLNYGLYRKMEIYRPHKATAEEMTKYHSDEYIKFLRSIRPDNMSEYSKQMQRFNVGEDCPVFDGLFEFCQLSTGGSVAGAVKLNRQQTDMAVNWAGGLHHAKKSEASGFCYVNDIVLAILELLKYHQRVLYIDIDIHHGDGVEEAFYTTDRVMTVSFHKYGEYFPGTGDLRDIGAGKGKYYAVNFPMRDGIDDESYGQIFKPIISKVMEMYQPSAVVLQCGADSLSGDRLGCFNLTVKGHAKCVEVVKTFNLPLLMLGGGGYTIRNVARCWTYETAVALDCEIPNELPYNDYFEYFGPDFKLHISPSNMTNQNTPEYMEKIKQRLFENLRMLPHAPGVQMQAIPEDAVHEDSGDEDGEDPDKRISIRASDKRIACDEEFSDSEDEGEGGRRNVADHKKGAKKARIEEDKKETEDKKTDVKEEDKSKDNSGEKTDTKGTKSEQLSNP

[12] = target: Histone deacetylase 3 (Homo sapiens, UniProt O15379)
Histone deacetylase 3, sequence (O15379 whole entry): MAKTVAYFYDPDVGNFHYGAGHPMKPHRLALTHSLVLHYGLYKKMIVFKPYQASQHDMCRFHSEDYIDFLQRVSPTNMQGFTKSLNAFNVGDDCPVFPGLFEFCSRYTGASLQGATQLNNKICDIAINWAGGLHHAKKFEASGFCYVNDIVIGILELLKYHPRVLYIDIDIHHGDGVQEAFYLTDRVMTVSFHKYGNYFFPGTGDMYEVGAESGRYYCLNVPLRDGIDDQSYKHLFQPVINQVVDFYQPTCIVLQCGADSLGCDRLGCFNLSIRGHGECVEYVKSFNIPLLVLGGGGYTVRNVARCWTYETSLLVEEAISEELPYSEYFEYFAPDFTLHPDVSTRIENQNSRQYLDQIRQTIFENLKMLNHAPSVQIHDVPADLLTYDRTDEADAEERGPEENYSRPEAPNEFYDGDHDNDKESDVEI

[13] = target: T1, Histone deacetylase 8 (Homo sapiens, UniProt Q9BY41); assay: Inhibition of HDAC8 by fluorescence assay
T1 sequence (Q9BY41 whole entry): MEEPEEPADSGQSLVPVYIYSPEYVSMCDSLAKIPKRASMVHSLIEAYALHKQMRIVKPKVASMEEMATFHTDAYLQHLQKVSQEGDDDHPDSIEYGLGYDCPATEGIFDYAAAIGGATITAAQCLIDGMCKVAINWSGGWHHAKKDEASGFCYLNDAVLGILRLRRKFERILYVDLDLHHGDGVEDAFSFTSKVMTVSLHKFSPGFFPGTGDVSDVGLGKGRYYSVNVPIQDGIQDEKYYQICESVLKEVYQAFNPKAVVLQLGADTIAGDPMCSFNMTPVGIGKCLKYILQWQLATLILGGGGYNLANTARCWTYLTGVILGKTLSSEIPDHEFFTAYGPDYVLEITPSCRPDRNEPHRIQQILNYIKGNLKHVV

[14] = Inhibition of HDAC assessed as increase of histone H3 acetylation
[15] = Inhibition of HDAC assessed as increase of histone H4 acetylation
[16] = Apparent permeability across human Caco2 cells; type: ADME, cell-based; settings: Caco-2
[17] = Metabolic stability in ICR mouse liver microsomes assessed as compound remaining at 1 uM after 60 mins in absence of NADPH; type: ADME, Microsome; settings: read-out: Stability
[18] = Metabolic stability in ICR mouse liver microsomes assessed as compound remaining at 1 uM after 60 mins in presence of NADPH; type: ADME, Microsome; settings: read-out: Stability
[19] = Metabolic stability in ICR mouse liver microsomes assessed as compound remaining at 1 uM after 60 mins in presence of buffer; type: ADME, Microsome; settings: read-out: Stability
[20] = AUC (0 to infinity) in BALB/c mouse at 5 mg/kg, iv; type: ADME, organism-based; design: time infinity, dose 5 mg/kg, route intravenous; settings: plasma
[21] = Clearance in BALB/c mouse at 5 mg/kg, iv; type: ADME, organism-based; design: dose 5 mg/kg, route intravenous; settings: in vivo
[22] = Volume of distribution at steady state in BALB/c mouse at 5 mg/kg, iv; type: ADME, organism-based; design: dose 5 mg/kg, route intravenous; settings: in vivo, read-out: Vdss
[23] = Half life in BALB/c mouse at 5 mg/kg, iv; type: ADME, organism-based; design: dose 5 mg/kg, route intravenous; settings: in vivo
[24] = Tmax in BALB/c mouse at 20 mg/kg, po; type: ADME, organism-based; design: dose 20 mg/kg, route oral; settings: in vivo
[25] = Cmax in BALB/c mouse at 20 mg/kg, po; type: ADME, organism-based; design: dose 20 mg/kg, route oral; settings: in vivo
[26] = AUC (0 to 5 hrs) in BALB/c mouse at 20 mg/kg, po; type: ADME, organism-based; design: time < 4 hr, dose 20 mg/kg, route oral; settings: plasma
[27] = Half life in BALB/c mouse at 20 mg/kg, po; type: ADME, organism-based; design: dose 20 mg/kg, route oral; settings: in vivo
[28] = Oral bioavailability in BALB/c mouse at 20 mg/kg; type: ADME, organism-based; settings: in vivo
[29] = system: HCT-116; assay: Antitumor activity against human HCT116 cells xenografted in nude mouse assessed as inhibition of tumor growth at 30 mg/kg, ip for 20 days relative to control; type: functional; design: scale not given: the % may be the effect or the level left; settings: route intraperitoneal
[30] = system: Mus musculus; assay: Toxicity in human HCT116 cells xenografted nude mouse assessed as change in body weight at 30 mg/kg, ip for 20 days; type: organism-based, HCT-116; design: dose 30 mg/kg, route intraperitoneal; settings: in vivo, 480 h
[31] = target: T2, Protein deacetylase HDAC6 (Homo sapiens, UniProt Q9UBN7)
T2 sequence (Q9UBN7 whole entry): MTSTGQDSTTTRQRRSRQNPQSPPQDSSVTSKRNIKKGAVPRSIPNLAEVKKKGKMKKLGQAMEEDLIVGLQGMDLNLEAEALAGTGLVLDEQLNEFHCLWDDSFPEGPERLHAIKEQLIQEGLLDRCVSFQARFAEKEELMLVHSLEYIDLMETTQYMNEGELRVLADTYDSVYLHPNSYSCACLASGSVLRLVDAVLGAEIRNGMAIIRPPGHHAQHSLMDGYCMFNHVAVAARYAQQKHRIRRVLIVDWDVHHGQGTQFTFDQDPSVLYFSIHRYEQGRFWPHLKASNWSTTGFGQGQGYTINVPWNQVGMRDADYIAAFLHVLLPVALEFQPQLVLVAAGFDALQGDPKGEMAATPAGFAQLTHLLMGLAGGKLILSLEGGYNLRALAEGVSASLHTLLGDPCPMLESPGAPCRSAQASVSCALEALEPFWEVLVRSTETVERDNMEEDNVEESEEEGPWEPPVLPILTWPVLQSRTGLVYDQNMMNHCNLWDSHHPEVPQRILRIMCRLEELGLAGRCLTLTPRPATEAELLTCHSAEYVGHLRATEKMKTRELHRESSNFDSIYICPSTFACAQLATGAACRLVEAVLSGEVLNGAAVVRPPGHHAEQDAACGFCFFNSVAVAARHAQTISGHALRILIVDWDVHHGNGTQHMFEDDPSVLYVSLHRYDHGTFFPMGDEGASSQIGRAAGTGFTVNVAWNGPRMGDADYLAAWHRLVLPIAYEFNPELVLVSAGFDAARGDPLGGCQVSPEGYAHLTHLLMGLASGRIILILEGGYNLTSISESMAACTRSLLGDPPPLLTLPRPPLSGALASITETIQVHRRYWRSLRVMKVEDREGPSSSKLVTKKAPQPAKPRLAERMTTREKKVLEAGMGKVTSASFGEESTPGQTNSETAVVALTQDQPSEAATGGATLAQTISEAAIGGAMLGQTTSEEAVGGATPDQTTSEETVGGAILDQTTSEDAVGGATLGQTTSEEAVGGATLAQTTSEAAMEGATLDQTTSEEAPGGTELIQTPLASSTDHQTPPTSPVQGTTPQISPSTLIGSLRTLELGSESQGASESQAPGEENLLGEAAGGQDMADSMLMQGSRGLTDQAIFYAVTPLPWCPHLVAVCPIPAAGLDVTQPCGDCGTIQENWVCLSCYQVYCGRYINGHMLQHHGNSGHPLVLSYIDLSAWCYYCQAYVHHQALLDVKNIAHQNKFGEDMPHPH

## O=C(CCC1=CCCN(CCc2ccccc2)C1=O)NO
[1]
  IC50: 0.35 µM
[2]
  GI50: 9.84 µM
[3]
  GI50: 1.62 µM
[4]
  GI50: 7.76 µM
[5]
  GI50: 8.16 µM
[6]
  GI50: 30 µM
[7]
  GI50: 5.84 µM

## O=C(CCC1=CCCN(CCCc2ccc3ccccc3c2)C1=O)NO
[1]
  IC50: 0.14 µM
[2]
  GI50: 3.77 µM
[3]
  GI50: 4.7 µM
[4]
  GI50: 5.78 µM

## O=C(CCC1=CCN(CCCc2ccc3ccccc3c2)C1=O)NO
[1]
  IC50: 0.01 µM
[2]
  GI50: 1.09 µM
[3]
  GI50: 0.65 µM
[4]
  GI50: 0.65 µM
[5]
  GI50: 0.78 µM
[6]
  GI50: 0.61 µM
[8]
  GI50: 0.61 µM
[7]
  GI50: 0.82 µM
[9]
  Activity: 242.2 mm3
[10]
  IC50: 25.6 µM
[11]
  IC50: 16.4 µM
[12]
  IC50: 80.1 µM
[13]
  IC50: 120 µM
[14]
  inhibition: Dose-dependent effect
[15]
  inhibition: Dose-dependent effect
[16]
  Papp: 16.3 ×10⁻⁶ cm/s
[17]
  remaining at 1 h, 1 µM: 71.1%
[18]
  remaining at 1 h, 1 µM: 43.1%
[19]
  remaining at 1 h, 1 µM: 97.2%
[20]
  AUC(0-inf): 890 ng·h/mL
[21]
  clearance: 93.7 mL/min/kg
[22]
  Vd: 0.85 L/kg
[23]
  half-life: 9 min
[24]
  Tmax: 15 min
[25]
  Cmax: 813 ng/mL
[26]
  AUC(0-t) at 4 h: 309 ng·h/mL
[27]
  half-life: 38.4 min
[28]
  bioavailability: 8.7%
[29]
  Activity: 34.4%
[30]
  Activity: Non-toxic
[31]
  IC50: 0.8 µM

## O=C(CCC1=CCCN(CCCc2ccccc2)C1=O)NO
[1]
  IC50: 0.27 µM
[2]
  GI50: 6.98 µM
[16]
  Papp: 17.5 ×10⁻⁶ cm/s

## CC(/C=C/C(=O)NO)=C\[C@@H](C)C(=O)c1ccc(N(C)C)cc1
[14]
  inhibition: Dose-dependent effect
[15]
  inhibition: Dose-dependent effect

## O=C(CCC1=CCCN(Cc2ccccc2)C1=O)NO
[1]
  IC50: 0.67 µM
[2]
  GI50: 30 µM
[3]
  GI50: 4.26 µM
[4]
  GI50: 30 µM
[5]
  GI50: 30 µM
[6]
  GI50: 30 µM
[7]
  GI50: 30 µM

## O=C(CCC1=CCCN(CCc2cccc3ccccc23)C1=O)NO
[1]
  IC50: 0.32 µM

## O=C(CCC1=CCN(CCc2ccc3ccccc3c2)C1=O)NO
[1]
  IC50: 0.05 µM
[2]
  GI50: 0.34 µM
[3]
  GI50: 0.59 µM
[4]
  GI50: 0.63 µM
[5]
  GI50: 0.84 µM
[6]
  GI50: 0.5 µM
[8]
  GI50: 0.8 µM
[7]
  GI50: 0.61 µM
[17]
  remaining at 1 h, 1 µM: 46.6%
[18]
  remaining at 1 h, 1 µM: 29.7%

## O=C(CCC1=CCN(CCCc2ccccc2)C1=O)NO
[1]
  IC50: 0.05 µM
[2]
  GI50: 3.91 µM
[3]
  GI50: 3.81 µM
[4]
  GI50: 4.24 µM
[5]
  GI50: 6.23 µM
[6]
  GI50: 3.46 µM
[8]
  GI50: 2.6 µM
[7]
  GI50: 4.52 µM
[16]
  Papp: 9.5 ×10⁻⁶ cm/s
[17]
  remaining at 1 h, 1 µM: 66.3%
[18]
  remaining at 1 h, 1 µM: 66.6%

## O=C(CCC1=CCCN(CCc2ccc3ccccc3c2)C1=O)NO
[1]
  IC50: 0.04 µM
[2]
  GI50: 0.56 µM
[3]
  GI50: 0.45 µM
[4]
  GI50: 0.61 µM
[5]
  GI50: 0.79 µM
[6]
  GI50: 0.54 µM
[8]
  GI50: 0.42 µM
[7]
  GI50: 0.56 µM
[16]
  Papp: 19.1 ×10⁻⁶ cm/s
[17]
  remaining at 1 h, 1 µM: 31%
[18]
  remaining at 1 h, 1 µM: 10.3%
[19]
  remaining at 1 h, 1 µM: 99.1%

## O=C(CCC1=CCCN(Cc2ccc3ccccc3c2)C1=O)NO
[1]
  IC50: 30 µM
[2]
  GI50: 30 µM
[3]
  GI50: 4.07 µM
[4]
  GI50: 6.09 µM
[5]
  GI50: 6.82 µM
[6]
  GI50: 30 µM
[7]
  GI50: 30 µM

## O=C(CCC1=CCN(CCc2cccc3ccccc23)C1=O)NO
[1]
  IC50: 0.36 µM
[2]
  GI50: 5.76 µM
[3]
  GI50: 4.76 µM
[4]
  GI50: 6.41 µM
[5]
  GI50: 6.78 µM
[6]
  GI50: 5.13 µM
[8]
  GI50: 5.23 µM
[7]
  GI50: 3.71 µM
[17]
  remaining at 1 h, 1 µM: 15.1%
[18]
  remaining at 1 h, 1 µM: 3.9%

## O=C(CCC1=CCN(Cc2ccc3ccccc3c2)C1=O)NO
[1]
  IC50: 0.15 µM
[2]
  GI50: 4.88 µM
[3]
  GI50: 1.22 µM
[4]
  GI50: 1.39 µM
[5]
  GI50: 3.54 µM
[6]
  GI50: 5.19 µM
[7]
  GI50: 7.98 µM

## O=C(CCC1=CCN(CCc2ccccc2)C1=O)NO
[1]
  IC50: 0.12 µM
[2]
  GI50: 4.43 µM
[3]
  GI50: 0.99 µM
[4]
  GI50: 1.08 µM
[5]
  GI50: 5.37 µM
[6]
  GI50: 4.29 µM
[7]
  GI50: 30 µM

## O=C(CCC1=CCN(Cc2ccccc2)C1=O)NO
[1]
  IC50: 0.8 µM
[2]
  GI50: 30 µM
[3]
  GI50: 4.73 µM
[4]
  GI50: 30 µM
[5]
  GI50: 30 µM
[6]
  GI50: 30 µM
[7]
  GI50: 30 µM
